The source of these data is ChEMBL document CHEMBL4699540, “Discovery and structure activity relationships of 7-benzyl triazolopyridines as stable, selective, and reversible inhibitors of myeloperoxidase” (Bioorg Med Chem, 2020).

For one data set, the target named is T1, Thyroid peroxidase (Homo sapiens, UniProt P07202).
T1 sequence (P07202 whole entry): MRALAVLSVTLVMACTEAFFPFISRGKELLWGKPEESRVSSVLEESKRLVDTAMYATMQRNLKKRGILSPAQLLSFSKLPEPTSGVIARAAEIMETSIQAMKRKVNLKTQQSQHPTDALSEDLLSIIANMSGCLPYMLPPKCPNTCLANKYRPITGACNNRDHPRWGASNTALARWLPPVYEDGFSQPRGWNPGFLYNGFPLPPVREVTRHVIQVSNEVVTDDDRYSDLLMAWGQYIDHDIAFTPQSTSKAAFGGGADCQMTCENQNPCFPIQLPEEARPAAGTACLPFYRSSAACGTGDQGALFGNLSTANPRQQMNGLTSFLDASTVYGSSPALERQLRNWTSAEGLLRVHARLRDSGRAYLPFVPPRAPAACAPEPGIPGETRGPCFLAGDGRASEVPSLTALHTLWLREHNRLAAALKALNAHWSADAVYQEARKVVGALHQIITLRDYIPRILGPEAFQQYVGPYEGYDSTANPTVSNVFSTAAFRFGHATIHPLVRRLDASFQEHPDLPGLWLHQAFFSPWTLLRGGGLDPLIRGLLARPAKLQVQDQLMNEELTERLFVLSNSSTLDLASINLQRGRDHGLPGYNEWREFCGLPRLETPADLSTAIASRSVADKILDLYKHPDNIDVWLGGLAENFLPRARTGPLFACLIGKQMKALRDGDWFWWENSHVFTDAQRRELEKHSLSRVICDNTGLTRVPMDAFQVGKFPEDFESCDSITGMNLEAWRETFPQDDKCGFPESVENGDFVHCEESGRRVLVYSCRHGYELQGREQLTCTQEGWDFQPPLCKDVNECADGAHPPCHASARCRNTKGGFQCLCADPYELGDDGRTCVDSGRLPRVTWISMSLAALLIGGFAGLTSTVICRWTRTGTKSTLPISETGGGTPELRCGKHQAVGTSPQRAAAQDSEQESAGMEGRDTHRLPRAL
Nature of the data set: Inhibition of TPO (unknown origin) using 3-iodo tyrosine as substrate incubated for 10 mins.

A short description of data set [1]: Protein binding in mouse plasma assessed as free fraction. The format is ADME, cell-free.
Data set [2] in a line: Binding affinity to human neutrophil MPO delta (1-95) measured for 5 mins by SPR assay. For orientation: SPR reads the build-up and loss of mass on a sensor chip optically.
Data set [3] in a line: Cmax in CD-1 mouse at 3 mg/kg, po by LC/MS analysis. Also noted: route oral, dose 3 mg/kg. The format is ADME, organism-based. The conditions noted are these: in vivo.
A short description of data set [4]: Permeability of compound at pH 7.4 by PAMPA assay. The format is ADME. The conditions noted are these: read-out: permeability. A general note: The PAMPA barrier holds no transporters, so it reflects passive diffusion.
A short description of data set [5]: Plasma concentration in human MPO transgenic thioglycollate-induced peritonitis mouse model at 30 mg/kg, po measured after 6 hrs by LC/MS analysis. The format is ADME, organism-based.
A short description of data set [6]: Metabolic stability in rat liver microsomes assessed as compound remaining. The format is ADME, Microsome. Background: Microsomes from liver hold many membrane-bound enzymes, among them those of drug oxidation.
Another data set has as its target Cytochrome P450 2D6 (Homo sapiens, UniProt P10635). The experiment in a line: Inhibition of CYP2D6 (unknown origin). The data set is classed as ADME.
A short description of data set [7]: Metabolic stability in mouse liver microsomes assessed as compound remaining. The data set is classed as ADME, Microsome.
Data set [8] is described as follows: Dissociation constant, pKa of the compound. The data set is classed as physicochemical.
The nature of data set [9]: AUCtot in CD-1 mouse at 3 mg/kg, po by LC/MS analysis. The format is ADME, organism-based. More on the design: time AUCmax, route oral, dose 3 mg/kg. The conditions noted are these: in vivo.
The nature of data set [10]: Permeability of compound at pH 5.5 by PAMPA assay. The format is ADME. The conditions noted are these: read-out: permeability.
Data set [11] can be described thus: Plasma concentration in human MPO transgenic thioglycollate-induced peritonitis mouse model at 10 mg/kg, po measured after 6 hrs by LC/MS analysis. The data set is classed as ADME, organism-based.
Another data set concerns the target T2, Eosinophil peroxidase (Homo sapiens, UniProt P11678).
T2 sequence (P11678 whole entry): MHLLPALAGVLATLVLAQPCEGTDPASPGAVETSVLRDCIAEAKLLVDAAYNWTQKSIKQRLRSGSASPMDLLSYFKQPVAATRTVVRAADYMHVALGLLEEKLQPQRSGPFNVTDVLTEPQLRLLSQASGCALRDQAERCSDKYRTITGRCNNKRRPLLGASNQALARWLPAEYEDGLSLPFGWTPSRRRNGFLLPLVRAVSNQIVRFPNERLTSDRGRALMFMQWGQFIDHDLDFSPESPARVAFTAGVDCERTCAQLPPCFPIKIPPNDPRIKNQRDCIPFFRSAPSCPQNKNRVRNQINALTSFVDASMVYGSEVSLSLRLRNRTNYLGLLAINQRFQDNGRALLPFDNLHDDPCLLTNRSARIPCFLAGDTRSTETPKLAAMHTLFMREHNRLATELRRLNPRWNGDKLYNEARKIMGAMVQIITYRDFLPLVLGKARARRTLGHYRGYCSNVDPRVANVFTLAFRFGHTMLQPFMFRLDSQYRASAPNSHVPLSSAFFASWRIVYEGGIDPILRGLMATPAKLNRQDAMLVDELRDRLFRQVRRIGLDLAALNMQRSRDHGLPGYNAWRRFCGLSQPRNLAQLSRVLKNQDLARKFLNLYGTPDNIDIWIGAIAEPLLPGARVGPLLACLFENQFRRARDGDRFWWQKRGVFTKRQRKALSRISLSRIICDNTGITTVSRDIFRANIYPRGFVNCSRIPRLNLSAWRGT
The experiment in a line: Inhibition of human EPX bromination activity using tyrosine as substrate by measuring 3-bromo tyrosine formation incubated for 10 mins.

Cytochrome P450 2D6, sequence (P10635 whole entry): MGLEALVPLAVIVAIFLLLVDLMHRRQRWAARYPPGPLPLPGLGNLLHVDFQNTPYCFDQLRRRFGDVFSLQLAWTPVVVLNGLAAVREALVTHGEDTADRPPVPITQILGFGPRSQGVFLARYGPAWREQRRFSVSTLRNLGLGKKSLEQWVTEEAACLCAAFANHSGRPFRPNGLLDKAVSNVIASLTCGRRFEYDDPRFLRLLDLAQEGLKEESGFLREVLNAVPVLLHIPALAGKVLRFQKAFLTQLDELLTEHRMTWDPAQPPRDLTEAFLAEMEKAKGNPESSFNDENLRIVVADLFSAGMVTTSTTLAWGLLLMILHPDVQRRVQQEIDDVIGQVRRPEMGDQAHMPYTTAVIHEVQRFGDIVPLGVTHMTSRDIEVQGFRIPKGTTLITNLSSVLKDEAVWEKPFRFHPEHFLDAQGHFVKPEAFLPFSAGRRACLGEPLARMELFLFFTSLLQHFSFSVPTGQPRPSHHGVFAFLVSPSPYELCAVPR

Take `Nc1cc(Cc2ccccc2)c2nn[nH]c2n1`: the IC50 (usually the concentration at which inhibition is half-maximal) against Thyroid peroxidase was 2200 nM; against Cytochrome P450 2D6, over 10000 nM; on Eosinophil peroxidase it was 32 nM. Further, the fraction unbound (usually free concentration divided by total concentration) in data set [1] was 0.36. Further, in data set [2], the Kd (as a rule, a measure of binding affinity in units of concentration) turned out to be 32 nM. For the same compound, in data set [3], the Cmax (in general, the maximum level reached in the sampled fluid or tissue) was 13 µM. The results for the Papp in [4] and in data set [10] were 31.3 ×10⁻⁶ cm/s and 42.7 ×10⁻⁶ cm/s, respectively. The values for the concentration at 6 h in [5] and in [11] were 26 µM and 7 µM, respectively. In addition, the values for the Stabilty in data set [6] and in data set [7] were 86% and 39%, respectively. Besides, the pKa (as a rule, the negative logarithm of the acid dissociation constant) in data set [8] is 7.4. Besides, the AUC – broadly, concentration integrated over time – in [9] stood at 47.9 µM·h.
